In article PMC3602653, “The brain slice method for studying drug distribution in the CNS” (Fluids and Barriers of the CNS, 2013):

Experiments:
[1] = Brain slice method, unbound volume of distribution in the brain (mouse); details: NMRI mouse brain slices, 5 h incubation at 37°C; mean (standard deviation)
Excerpt: (§1) Drug-naïve male Sprague–Dawley 250–300 g rats and Naval Medical Research Institute (NMRI) 25–30 g mice were used (Taconic, Lille Skensved, Denmark).
(§2) The composition of artificial cerebrospinal fluid or extracellular fluid (aECF) is crucial. […] Ascorbic acid is used as a natural free-radical scavenger to protect the cell membranes from lipid peroxidation and the brain slices from swelling [21].
(§3) When deciding on the compounds of each cassette, the pKa values of the compounds should be taken into account. Because high concentrations of weak bases can increase the pH of the acidic intracellular compartments, the extent of lysosomal trapping of a weak base could be affected by the existence of another weak base. […] Consequently, it is recommended that the final aECF concentration of each studied compound in the cassette should be 100–200 nM and the total concentration of the studied compounds should not exceed 1 μM [18].
(§4) Drug-naïve rats/mice are anesthetized with inhalation anesthesia using 5% isoflurane. When deep anesthesia is reached, up to 10 ml of blood (rats) is collected intracardially. The animal is then decapitated and the skull quickly opened. The isolated brain is immediately placed into blank ice-cold aECF saturated with oxygen. In our experience, the brains should be sliced within 15–20 minutes of harvesting to retain their viability.
(§5) After discarding the first one or two brain slices, 6 (rat brain) or 10 (mouse brain) consecutive 300 μm brain slices are cut on a coronal plane, starting approximately 1.7 mm anterior to the bregma (rostral striatum).
(§6) The incubation-equilibration process is started by gently transferring the 6 (rat) or 10 (mouse) brain slices from the storage beaker (using a micro double-ended spatula) into one 45 mm high, 80 mm diameter, flat-bottomed glass beaker (Duran Group, VWR, Sweden) containing 15 ml (rat) or 10 ml (mouse) of the aECF containing the selection of drugs to be investigated (Figure 1C). The beaker is then filled with humidified 100% oxygen over the aECF and covered with a custom-fabricated lid (Figure 1D) composed of a Teflon fluorinated ethylene-propylene (FEP) film (50 Å, 12.7 μm thick; DuPont, Katco Ltd, UK) as designed by Potter and DeMarse with minor modifications [23]. A “blank” beaker is also incubated in parallel to check stability of the compounds added into the buffer.
(§7) Finally, the beaker is placed inside the small plastic box in the incubated shaker (e.g. MaxQ4450 Thermo Fisher Scientific, NinoLab, Sweden) for 5 h at 37°C (Figure 1E). Control of the temperature by an external thermometer is recommended. A rotation speed of 45 rpm and oxygen flow of about 75–80 ml per minute through a glass frit apparatus appear sufficient.
(§8) Since the unbound drug concentration in the brain slice interstitial fluid at equilibrium is taken to be equal to the drug concentration in the aECF in the beaker, the presence of any minor debris from the brain tissue should be avoided in the sampled aECF after the 5 h incubation. To achieve this, the beaker needs to sit still for 5 minutes after finishing the incubation before sampling the aECF.

[2] = Brain slice method, unbound volume of distribution in the brain (rat); type: in vitro ADME; details: SD rat brain slices, 5 h incubation at 37°C; mean (standard deviation)
Excerpt: as §1, §2, §3, §4, §5, §6, §7, §8

[3] = cited from earlier work
[4] = Unbound brain-to-plasma concentration ratio (Kp,uu,brain), BBB net flux, from Kp,brain, Vu,brain and fu,plasma; details: Kp,brain corrected for brain tissue uptake (Vu,brain from brain slice method) and plasma protein binding (fu,plasma)
Excerpt: It has been proposed by Fridén et al. that in vitro determination of Vu,brain in combination with in vivo determination of the total brain-to-plasma concentration ratio (Kp,brain) and in vitro determination of the fraction of unbound drug in plasma (fu,plasma) would allow rapid evaluation of unbound brain-to-plasma concentration ratio (Kp,uu,brain) (Figure 2). Moreover, combining Vu,brain with fu,brain would allow estimation of the unbound intracellular-to-extracellular concentration ratio (Kp,uu,cell). It is essential to emphasize that, in terms of predicting Cu,brainISF or Kp,uu,brain, rank ordering of compounds with respect to Vu,brain is futile, since there is no causal relationship.
Complex evaluation of the abovementioned neuropharmacokinetic parameters gives insight to drug distribution in the brain. For instance, analogue of γ-aminobutyric acid gabapentin has Kp,brain equal to 0.64 [26]. However, after correction of Kp,brain for brain tissue uptake (using Vu,brain derived from the brain slice method) and plasma protein binding (using fu,plasma) the BBB net flux was estimated as a 0.14 meaning that only 14% of unbound drug in plasma is passing the BBB. Moreover, after passing BBB gabapentin (substrate to the large neutral amino acid transporter) tends to accumulate in the cells as it could be judged from Kp,uu,cell equal to 4.55 [6].

[5] = cited from earlier work; remark: listed apart in the source

| SMILES | Vu,brain [1] | Vu,brain [2] | Kp,brain (total brain-to-plasma concentration ratio) [3] | Kp uu [4] | Kp,uu,cell (unbound intracellular-to-extracellular concentration ratio) [5] |
| --- | --- | --- | --- | --- | --- |
| CC(=O)O[C@@]12CO[C@@H]1C[C@H](O)[C@@]1(C)C(=O)[C@H](O)C3=C(C)[C@@H](OC(=O)[C@H](O)[C@@H](NC(=O)OC(C)(C)C)c4ccccc4)C[C@@](O)([C@@H](OC(=O)c4ccccc4)[C@H]21)C3(C)C [Docetaxel] | 796 (177) ml·g brain^-1 | 777 (217) ml·g brain^-1 |  |  |  |
| Fc1ccc([C@@H]2CCNC[C@H]2COc2ccc3c(c2)OCO3)cc1 [Paroxetine] | 596 (97) ml·g brain^-1 | 714 (72) ml·g brain^-1 |  |  |  |
| NCC1(CC(=O)O)CCCCC1 [Gabapentin] | 4.22 (0.93) ml·g brain^-1 | 4.49 (0.29) ml·g brain^-1 | 0.64 | 0.14 | 4.55 |
| CSc1ccc2c(c1)N(CCC1CCCCN1C)c1ccccc1S2 (stereo not shown) [Thioridazine] | 1930 (170) ml·g brain^-1 | 2650 (232) ml·g brain^-1 |  |  |  |
| COc1ccc2c(c1)c(CC(=O)O)c(C)n2C(=O)c1ccc(Cl)cc1 [Indomethacin] | 12.0 (1.8) ml·g brain^-1 | 14.1 (1.8) ml·g brain^-1 |  |  |  |
